Data: US20240180881A1, “METHODS FOR DECREASING RESISTANCE TO CHEMOTHERAPY” (National Institute of Immunology, priority 2022, published 2024)

Experiments:
[1] = biological target: T1, RAD54 chromatin remodeling activity (Homo sapiens, UniProt Q92698); test: REA assay on chromatinized MRP2 array; type: biochemical; conditions: 10 μM compound
T1 construct: GST RAD54 (1-747) (WT), GST BLM (1-1417) (WT), His RAD54 (1-747) (WT); made in house; host or cells: E. coli BL-21 DE3
T1 sequence (Q92698 1-747): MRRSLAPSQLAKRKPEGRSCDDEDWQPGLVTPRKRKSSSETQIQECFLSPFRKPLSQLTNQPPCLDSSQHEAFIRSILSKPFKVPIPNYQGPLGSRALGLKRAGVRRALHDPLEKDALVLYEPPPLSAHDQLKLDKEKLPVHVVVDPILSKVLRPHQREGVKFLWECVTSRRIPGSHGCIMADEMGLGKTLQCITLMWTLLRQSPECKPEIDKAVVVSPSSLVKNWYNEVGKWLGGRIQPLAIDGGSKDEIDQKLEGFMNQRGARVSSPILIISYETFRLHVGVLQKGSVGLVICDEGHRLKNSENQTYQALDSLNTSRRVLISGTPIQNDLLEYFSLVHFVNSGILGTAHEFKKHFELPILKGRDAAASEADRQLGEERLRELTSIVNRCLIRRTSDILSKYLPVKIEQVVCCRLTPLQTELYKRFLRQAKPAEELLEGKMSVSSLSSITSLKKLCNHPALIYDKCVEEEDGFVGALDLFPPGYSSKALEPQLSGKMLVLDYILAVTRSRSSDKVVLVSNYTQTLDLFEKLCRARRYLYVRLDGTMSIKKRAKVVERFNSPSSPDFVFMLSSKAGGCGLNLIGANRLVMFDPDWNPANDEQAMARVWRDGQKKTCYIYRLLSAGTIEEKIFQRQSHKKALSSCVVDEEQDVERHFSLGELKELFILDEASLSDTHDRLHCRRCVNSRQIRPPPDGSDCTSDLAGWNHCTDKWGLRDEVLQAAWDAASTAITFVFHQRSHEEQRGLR
Text: (§1) The data was from three independent experiments.
as §1
(§2) The data is from three independent experiments.

[2] = test system: HCT116 IC60 1-OHPR tumors; test: Xenograft model, oxaliplatin resistant cells; type: in vivo, NSG mice; conditions: 1-OHP 2 mg/kg + compound 5 mg/kg, compared to 1-OHP alone
Description: Tumors from different groups were excised at the end of the experiments. […] For these experiments, RNA and protein was isolated from tumors obtained at the end point of the xenograft experiment. RNA and the protein levels of MRP2 were determined by RT-qPCR and western blotting with anti-MRP2 antibody. For each group three tumor samples were analyzed (FIG. 6F, 6G). […] The levels of the indicated MDR genes were quantitated from three tumor samples from each group. Mean±S.D. (FIG. 13A). […] The experiment was repeated three times and one representative experiment has been shown (FIG. 13B).
In all cases tumor volume were measured at the indicated days post-injection using the following formula: Tumor volume=½(length×width2).

RAD54 ATPase activity = biological target: T2, RAD54 ATPase activity (Homo sapiens, UniProt Q92698); test: ATPase assay; type: biochemical; conditions: 10 μM compound
T2 construct: made in house; host or cells: E. coli BL-21 DE3
T2 sequence (Q92698 1-747): T1 sequence (Q92698 1-747)
Description: The data is from three independent experiments. Mean±S.D.
The presence of the disruptors also led to a decrease in the ATP binding to RAD54.
Assay for RAD54 ATPase activity was carried out as per the previously published protocol (Srivastava et al., 2009). His-RAD54 (120 nM) was incubated with the GST-BLM (1-212) or BLM_peptide or SCM_peptide (180 nM). […] 1 μl of the sample was spotted on the polyethyleneimine-coated TLC plate, resolved in 1M Formic Acid and 0.3M LiCl. The products of ATP hydrolysis were then visualized by Phosphoimager scans taken in Typhoon™ laser-scanner platform (Cytiva) and quantitated using the inbuilt software.

[3] = test system: HCT116 CPT(R) cells stably expressing BLM (Delta 181-212) in BLM−/− background; test: Xenograft, cells expressing BLM (Delta 181-212); type: in vivo, NSG mice; conditions: for tumour volume, chemosensitivity to camptothecin: CPT + compound
Description: Xenografts assays were carried out in NSG mice using HCT116 CPT(R) cells stably expressing BLM (Delta 181-212) in BLM−/− background. FIGS. 15A-15C show the tumour volumes post-injection of cells.
RNA (FIG. 15D) or protein (FIG. 15E) levels of the indicated MDR genes were determined by RT-qPCR or immunoblotting with the indicated antibodies.

[4] = test system: homologous recombination in HCT116 IC60 CPTR cells; test: HR assay; type: cell-based; conditions: HR substrate transfected for 72 hours
Description: Concentrations of CPT used: 0.140 nM, 20 nM, 50 nM, 1000 nM. Concentration of 1-OHP: 0.14 μM, 2 μM, 4 μM, 6 μM, 8 μM. Concentrations of CDDP used: 0.140 μM, 2 μM, 5 μM, 10 μM. The percentage of viable cells were determined by MTT assays (FIG. 12A-12C). The data in FIG. 12A and FIG. 12C is from three independent experiments and the data in FIG. 12B is from nine independent experiments. […] The levels of MRP2, MRP3, MRP5, MXR were quantitated from three independent experiments. […] Specifically, HCT116 IC60 CPTR cells were transfected with the HR substrate for 72 hours and the levels of HR was determined (FIG. 6A). The data is from three independent experiments. […] The number of soft agar colonies in each condition were counted. The data is from three independent experiments.
For HR assay, 10 μg of the HR plasmid (Seluanov et al., 2010) was digested with I-SceI, purified and eluted into 20 μl of 10 mM TrisHCl pH 8.0. 5 μg of the linearized reporter cassette along with 100 ng of tdTomato-N1 plasmid were transfected in an exponentially growing 10 cm dish of cells using FuGENE® HD Transfection Reagent. After 3 days of transfection, the cells were harvested. The GFP positive and TdRed positive cells were analysed by FACS. SCE assays were carried out as described earlier (Chabosseau et al., 2011).

[5] = biological target: T1, RAD54 chromatin remodeling activity; test: Restriction enzyme accessibility (REA) assay on chromatinized G5E4 array; type: biochemical; conditions: 10 μM compound, +ATP
Text: as §2, §2

HT-29 OHP(R) cells = test: Xenograft, HT-29 OHP(R); type: in vivo, NSG mice; conditions: for tumour volume, chemoresistance: CPT + compound
Description: Xenografts assays were carried out in NSG mice using HT-29 OHP(R) cells.
RNA (FIG. 16D) or protein (FIG. 16E) levels of the indicated MDR genes were determined by RT-qPCR or immunoblotting with the indicated antibodies.

[6] = without or with compound treatment

Row | SMILES | BLM dependent enhancement of RAD54 chromatin remodeling, fraction uncut [1] | tumor growth [2] | BLM dependent enhancement of ATPase activity of RAD54 (ATP hydrolysis) (RAD54 ATPase activity) | tumour volume, chemosensitivity to camptothecin [3] | levels of HR [4] | BLM (1-212) dependent enhancement of RAD54 chromatin remodeling, fraction uncut [5] | tumour volume, chemoresistance (HT-29 OHP(R) cells) | RNA and protein levels of the MDR genes in tumours [3, 6] | RNA and protein levels of the MDR genes in tumours (HT-29 OHP(R) cells; [6])
1 | CC(=O)Nc1nnc(S(N)(=O)=O)s1 [C3, Acetazolamide] | decreased the efficiency of BLM dependent enhancement of RAD54 chromatin remodelling activity | inhibited the tumor growth | reduced the extent of ATP hydrolysis | abrogates the functions | decreased the levels of the HR | decrease the efficiency of BLM dependent enhancement of RAD54 chromatin remodeling activity | reverses chemoresistance | – | –
2 | OCCN(CCO)c1nc(N2CCCCC2)c2nc(N(CCO)CCO)nc(N3CCCCC3)c2n1 [C7, Dipyridamole] | decreased the efficiency of BLM dependent enhancement of RAD54 chromatin remodelling activity | inhibited the tumor growth | reduced the extent of ATP hydrolysis | abrogates the functions | decreased the levels of the HR | decrease the efficiency of BLM dependent enhancement of RAD54 chromatin remodeling activity | reverses chemoresistance | – | –
3 | CN1CCN(C2=Nc3ccccc3Oc3ccc(Cl)cc32)CC1.O=C(O)CCC(=O)O [C17, Loxapine succinate] | decreased the efficiency of BLM dependent enhancement of RAD54 chromatin remodelling activity | inhibited the tumor growth | reduced the extent of ATP hydrolysis | abrogates the functions | decreased the levels of the HR | decrease the efficiency of BLM dependent enhancement of RAD54 chromatin remodeling activity | reverses chemoresistance | unaffected | decreased
